The results in this text go back to PMC6160049 (PLoS ONE, 2018).

One data set in a line: in vitro. The text has this: (§1) Female Sprague Dawley rats were purchased from Charles River (QC, Canada). Rats were housed at the Laurentian University Animal Care Facility and supplied with food and water ad libitum. All experimental protocols were approved by the Health Sciences North Research Institute biosafety committee and the Laurentian University animal care committee. Blood was collected from rats under a surgical plane of anesthesia using isoflurane via cardiac puncture. Rats were then euthanized by excess isoflurane in addition to the severing of the descending aorta and cutting of the diaphragm. Blood was immediately mixed with an ethylenediaminetetraacetic acid solution (Fisher Scientific, Fairlawn NJ,0.1 M, 5 mM final concentration) and stored on ice until being centrifuged at 2,100 x G and 4 °C for 10 minutes. The top plasma layer was removed, aliquoted and stored at -80 °C.
(§2) Dynantin samples were analyzed at a constant solvent flow rate of 0.7 mL/min at 35 °C using a binary gradient (Table 1). Solvent A consisted of a 25% solution of acetonitrile (HPLC grade Fisher Scientific) in ddH2O (0.2 μm filtered) and solvent B consisted of acetonitrile, with each solvent containing 0.1% trifluoroacetic acid (v/v, protein sequencing grade, Sigma Aldrich, Fairlawn NJ).
(§3) MDP samples were analyzed at a constant solvent flow rate of 1.0 mL/min at 35 °C using a binary gradient (Table 2). Solvent A consisted of ddH2O (0.2 μm filtered) and solvent B consisted of methanol (MeOH) (HPLC grade, Fisher Scientific, Fairlawn NJ), with each solvent containing 0.1% formic acid (v/v, LC/MS grade, Fisher Scientific).

Data set [1] can be described thus: Peptide with mannose lipid (ML-C14) plasma stability analysis. The note with it: for dynantin remaining in rat plasma / dynantin degradation in rat plasma: 37 °C, RP-HPLC, UV 210 nm; for dynantin remaining in rat plasma: relative to T-zero; for dynantin degradation in rat plasma: 48 h.
Description: as §1, §2, §3
Peptide stability in combination with ML-C14 was investigated using a modified version of the above noted procedure. Aliquots of dynantin or MDP were first combined with varying amounts of ML-C14 (in THF, 20 μL total addition), and then thoroughly mixed before the addition of thawed rat plasma (88 μL). A control sample was also prepared by combining each peptide with THF alone (20 μL) and plasma (88 μL). Samples were incubated at 37 °C in a heating mantle for varying lengths of time before being stored at -80 °C. For HPLC analysis, samples were thawed, thoroughly mixed, diluted in MeOH to destroy liposome particles (1/10 for dynantin, 1/5 for MDP), and solids pelleted by centrifugation at 10,000 rpm and 20 °C for 5 min. The supernatants were carefully removed for analysis (8 μL injections, in duplicate). Stability is represented as the percentage of peptide remaining relative to the amount determined at T-zero.

A further data set can be described thus: thawed rat plasma. The note with it: Female Sprague Dawley rats, 37 °C, up to 24 hours.

In the case of `CC(=O)N[C@H]1C(O)O[C@H](CO)[C@@H](O)[C@@H]1O[C@H](C)C(=O)N[C@@H](C)C(=O)N[C@H](CCC(=O)O)C(N)=O` (stereo partly shown) [MDP, muramyl dipeptide], the “degradation of MDP in rat plasma” value in the data set “in vitro” was “completely degraded”; in data set [1] it was “Complete degradation”. In addition, the metabolised at 12 h in the data set “in vitro” (female, Sprague Dawley, rat, plasma) is about 60%.

`CC[C@H](C)[C@H](NC(=O)[C@H](CCCN=C(N)N)NC(=O)[C@H](CCCN=C(N)N)NC(=O)[C@H](CC(C)C)NC(=O)[C@H](Cc1ccccc1)NC(=O)CNC(=O)CNC(=O)[C@@H](C)Cc1c(C)cc(O)cc1C)C(=O)N[C@@H](CCCN=C(N)N)C(=O)N1CCC[C@H]1C(=O)N[C@@H](CCCCN)C(N)=O` [dynantin]: the “degradation of dynantin in rat plasma” value in the data set “in vitro” (peptide alone, EDTA rat plasma, 37 °C, 12 h, RP-HPLC, UV 210 nm, relative to T-zero, three experiments) is “complete dynantin degradation”. The “dynantin remaining in rat plasma” value in data set [1] (with ML-C14, peptide:glycolipid 1:4, EDTA rat plasma 88 μL, 12 h, diluted 1/10 in MeOH, mean ± SEM of three experiments) is recorded as 21 ± 4%; in data set [1] (with ML-C14, peptide:glycolipid 1:4, rat plasma, 24 h), “no detectable peptide”; in data set [1] (with ML-C14, peptide:glycolipid 1:8, rat plasma, 12 h, mean ± SEM of three experiments), 62 ± 4%; in data set [1] (with ML-C14, peptide:glycolipid 1:8, rat plasma, 24 h, mean ± SEM of three experiments) it was 20 ± 3%; in data set [1] (with ML-C14, peptide:glycolipid 1:10, rat plasma, 12 h, mean ± SEM of three experiments), 66 ± 6%; in data set [1] (with ML-C14, peptide:glycolipid 1:10, rat plasma, 24 h, mean ± SEM of three experiments), 19 ± 4%. The “dynantin degradation in rat plasma” value was “completely degraded” in data set [1] (with ML-C14, peptide:glycolipid 1:8, rat plasma) and “completely degraded” in data set [1] (with ML-C14, peptide:glycolipid 1:10, rat plasma).

For the compound (2S)-Mdp-G-G-F-L-R-R-I-R-P-K-NH2, the cleaved bond result in “thawed rat plasma” was “L-R and R-R, major and R-I”.
